The term % inhibition denotes the percentage by which the read-out fell short of the control. Read a high % inhibition as a response far below the control. By IC50 is commonly meant the point on the concentration scale where inhibition reaches its midpoint.

This is an account of results in patent publication US20230263822A1, “MODULATION OF FACTOR 11 EXPRESSION” (Ionis Pharmaceuticals, Inc., priority 2008, published 2023).

Holding throughout (type): cell-based
The test system of series [1] is human Factor 11 mRNA. In words: Antisense inhibition of human Factor 11 in HepG2 cells, lipofectin, 75 nM (Example 1). As to conditions: 75 nM antisense oligonucleotide, ~24 h, relative to untreated control cells, gapmers targeted to SEQ ID NO: 1. How it is done: Antisense oligonucleotides targeted to a Factor 11 nucleic acid were tested for their effects on Factor 11 mRNA in vitro. Cultured HepG2 cells at a density of 10,000 cells per well were transfected using lipofectin reagent with 75 nM antisense oligonucleotide. After a treatment period of approximately 24 hours, RNA was isolated from the cells and Factor 11 mRNA levels were measured by quantitative real time PCR. Factor 11 mRNA levels were adjusted according to total RNA content, as measured by RIBOGREEN. Results are presented as percent inhibition of Factor 11, relative to untreated control cells.
The chimeric antisense oligonucleotides in Tables 1 and 2 were designed as 5-10-5 MOE gapmers. The gapmers are 20 nucleotides in length, wherein the central gap segment is comprised of 10 2′-deoxynucleotides and is flanked on both sides (in the 5′ and 3′ directions) by wings comprising 5 nucleotides each. Each nucleotide in the 5′ wing segment and each nucleotide in the 3′ wing segment has a 2′-MOE modification. The internucleoside linkages throughout each gapmer are phosphorothioate (P=S) linkages. All cytidine residues throughout each gapmer are 5-methylcytidines. “Target start site” indicates the 5′-most nucleotide to which the gapmer is targeted. “Target stop site” indicates the 3′-most nucleotide to which the gapmer is targeted. Each gapmer listed in Table 1 is targeted to SEQ TD NO: 1 (GENBANK Accession No. NM_000128.3) and each gapmer listed in Table 2 is targeted to SEQ TD NO: 2 (GENBANK Accession No. NT_022792.17, truncated from 19598000 to 19624000).

For series [2], the system named is human Factor 11 mRNA. In words: Dose-dependent inhibition of human Factor 11 in HepG2 cells, electroporation 0.7-20 uM (Example 4). The note with it: for percent inhibition of Factor 11 at 0.7 μM / percent inhibition of Factor 11 at 2.2 μM / percent inhibition of Factor 11 at 6.7 μM / percent inhibition of Factor 11 at 20 μM: relative to untreated control cells. How it is done:
(§1) The gapmers were also transfected via electroporation and their dose dependent inhibition of human Factor 11 mRNA was measured. Cells were plated at a density of 20,000 cells per well and transfected via electroporation with 0.7 μM, 2.2 μM, 6.7 μM, and 20 μM concentrations of antisense oligonucleotide, as specified in Table 10. After a treatment period of approximately 16 hours, RNA was isolated from the cells and Factor 11 mRNA levels were measured by quantitative real-time PCR. Human Factor 11 primer probe set RTS 2966 was used to measure mRNA levels. Factor 11 mRNA levels were adjusted according to total RNA content, as measured by RIBOGREEN. Results are presented as percent inhibition of Factor 11, relative to untreated control cells.

In series [3] the test system is human Factor 11 mRNA. In words: Antisense inhibition of human Factor 11 in HepG2 cells by microwalk gapmers, lipofectin, 75 nM (Example 3). In a few lines:
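HepG2 cells (10,000/well) were transfected via lipofectin with 75 nM 20-mer MOE gapmers (phosphorothioate, 5-methyl-C) for about 24 h. Factor 11 mRNA was measured by qRT-PCR, normalized to RIBOGREEN total RNA, and given as percent inhibition versus untreated cells.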

Series [4] relates to human Factor 11 mRNA. In words: Dose-dependent inhibition of human Factor 11 in HepG2 cells, lipofectin 9.375-75 nM (Example 4). As to conditions: for percent inhibition of Factor 11 at 9.375 nM / percent inhibition of Factor 11 at 18.75 nM / percent inhibition of Factor 11 at 37.5 nM / percent inhibition of Factor 11 at 75 nM: relative to untreated control cells. How it is done: as §1, with “Cells” for “The gapmers were also transfected via electroporation and their dose dependent inhibition of human Factor 11 mRNA was measured. Cells”, “10,000” for “20,000”, “using lipofectin reagent” for “via electroporation”, “9.375 nM, 18.75 nM, 37.5 nM” for “0.7 μM, 2.2 μM, 6.7 μM,”, “75 nM” for “20 μM”, “9.” for “10.”

[5] abbreviates: HepG2 cells, lipofectin, gapmers targeted to nucleobases 1018 to 1042 of SEQ ID NO: 1.
[6] abbreviates: HepG2 cells, lipofectin, gapmers targeted to nucleobases 1062 to 1091 of SEQ ID NO: 1.

Strand notation (5' to 3'): a small letter for the sugar, then the base; units joined by * are phosphorothioate-linked, units joined directly phosphodiester-linked; [ ] holds rarer units or linkages, { } end groups; capitals alone tell only the bases. e = 2'-O-(2-methoxyethyl) (MOE); [5mC] = 5-methylcytosine; d = 2'-deoxy (DNA)

Take “412196 (antisense eT*eG*eA*eT*eA*dT*dA*dA*dG*dA*dA*dA*dA*dT*d[5mC]*eA*eT*e[5mC]*e[5mC]*eT) [compound 412196]”: in series [1], the “% inhibition” value was found to be 25%.
On the same count and under the same terms, with “412197 (antisense eA*e[5mC]*eA*e[5mC]*eA*dT*dT*d[5mC]*dA*d[5mC]*d[5mC]*dA*dG*dA*dA*eA*e[5mC]*eT*eG*eA) [compound 412197]” the figure was 45%; with “412198 (antisense eT*eT*e[5mC]*eA*eG*dG*dA*d[5mC]*dA*d[5mC]*dA*dA*dG*dT*dA*eA*eA*e[5mC]*e[5mC]*eA) [compound 412198]”, 21%.
With “412199 (antisense eT*eT*e[5mC]*eA*e[5mC]*dT*d[5mC]*dT*dT*dG*dG*d[5mC]*dA*dG*dT*eG*eT*eT*eT*e[5mC]) [compound 412199]”, the “% inhibition” value in series [1] worked out at 66%.
Regarding “416973 (antisense eT*eT*dA*dT*dG*d[5mC]*d[5mC]*d[5mC]*dT*dT*d[5mC]*dA*dT*dG*dT*e[5mC]*eT*eA*eG*eG) [compound 416973]”, in series [2], the IC50 is 2300 nM, the “percent inhibition of Factor 11 at 0.7 μM” value is 20%, the “percent inhibition of Factor 11 at 2.2 μM” value was determined as 48% and the “percent inhibition of Factor 11 at 6.7 μM” value is on record as 86%. The “percent inhibition of Factor 11 at 20 μM” value in series [2] is 93%. In series [3] (HepG2, lipofectin, ~24 h, gapmers targeted to nucleobases 656 to 704 of SEQ ID NO: 1), the “% inhibition” value came to 92%. In addition, in series [4], the concentration for half-maximal inhibition (IC50) came to 3 nM, the “percent inhibition of Factor 11 at 9.375 nM” value stood at 60%, the “percent inhibition of Factor 11 at 18.75 nM” value came to 75% and the “percent inhibition of Factor 11 at 37.5 nM” value amounted to 85%. Further, in series [4], the “percent inhibition of Factor 11 at 75 nM” value is given as 87%.
For the substance “416984 (antisense e[5mC]*eA*dA*d[5mC]*d[5mC]*dG*dG*dG*dA*dT*dG*dA*dT*dG*dA*eG*eT*eG*e[5mC]*eA) [compound 416984]”, in series [2], the IC50 stood at 1100 nM, the “percent inhibition of Factor 11 at 0.7 μM” value turned out to be 43%, the “percent inhibition of Factor 11 at 2.2 μM” value came to 54% and the “percent inhibition of Factor 11 at 6.7 μM” value is listed as 88%. Besides, the “percent inhibition of Factor 11 at 20 μM” value in series [2] came to 90%. Also, the “% inhibition” value in series [3] (setting [5]) was found to be 89%. In addition, in series [4], the IC50 is 22 nM, the “percent inhibition of Factor 11 at 9.375 nM” value was determined as 26%, the “percent inhibition of Factor 11 at 18.75 nM” value is 50% and the “percent inhibition of Factor 11 at 37.5 nM” value stood at 62%. Moreover, in series [4], the “percent inhibition of Factor 11 at 75 nM” value came to 81%.
Take “416985 (antisense eG*e[5mC]*dA*dA*d[5mC]*d[5mC]*dG*dG*dG*dA*dT*dG*dA*dT*dG*eA*eG*eT*eG*e[5mC]) [compound 416985]”: in series [2], the IC50 worked out at 5800 nM, the “percent inhibition of Factor 11 at 0.7 μM” value was determined as 12%, the “percent inhibition of Factor 11 at 2.2 μM” value was 48% and the “percent inhibition of Factor 11 at 6.7 μM” value is 45%. Also, the “percent inhibition of Factor 11 at 20 μM” value in series [2] is recorded as 69%. In addition, the “% inhibition” value in series [3] (setting [5]) was determined as 88%. Besides, in series [4], 49 nM corresponded to half-maximal inhibition (IC50), the “percent inhibition of Factor 11 at 9.375 nM” value turned out to be 17%, the “percent inhibition of Factor 11 at 18.75 nM” value was found to be 30% and the “percent inhibition of Factor 11 at 37.5 nM” value was 47%. Also, the “percent inhibition of Factor 11 at 75 nM” value in series [4] turned out to be 57%.
As for “416989 (antisense eG*eA*dG*dA*dT*dT*d[5mC]*dT*dT*dT*dG*dG*dG*d[5mC]*d[5mC]*eA*eT*eT*e[5mC]*e[5mC]) [compound 416989]”, in series [2], the midpoint of inhibition, the IC50, lay at 1300 nM; the “percent inhibition of Factor 11 at 0.7 μM” value amounted to 32%; the “percent inhibition of Factor 11 at 2.2 μM” value came to 65%; the “percent inhibition of Factor 11 at 6.7 μM” value worked out at 88%. In addition, in series [2], the “percent inhibition of Factor 11 at 20 μM” value was 94%. For the same substance, in series [3] (setting [6]), the “% inhibition” value was determined as 88%. Also, in series [4], the IC50 was 26 nM, the “percent inhibition of Factor 11 at 9.375 nM” value amounted to 18%, the “percent inhibition of Factor 11 at 18.75 nM” value is given as 41% and the “percent inhibition of Factor 11 at 37.5 nM” value worked out at 62%. The “percent inhibition of Factor 11 at 75 nM” value in series [4] is 83%.
“416993 (antisense e[5mC]*eT*dT*dT*dG*dA*dG*dA*dT*dT*d[5mC]*dT*dT*dT*dG*eG*eG*e[5mC]*e[5mC]*eA) [compound 416993]”: in series [2], the half-maximal inhibitory concentration (IC50) was 2200 nM, the “percent inhibition of Factor 11 at 0.7 μM” value is listed as 22%, the “percent inhibition of Factor 11 at 2.2 μM” value is 48% and the “percent inhibition of Factor 11 at 6.7 μM” value is 87%. In addition, the “percent inhibition of Factor 11 at 20 μM” value in series [2] came to 92%. In series [3] (setting [6]), the “% inhibition” value turned out to be 91%. Further, in series [4], the IC50 was determined as 36 nM, the “percent inhibition of Factor 11 at 9.375 nM” value was determined as 15%, the “percent inhibition of Factor 11 at 18.75 nM” value amounted to 37% and the “percent inhibition of Factor 11 at 37.5 nM” value is 50%. For the same substance, the “percent inhibition of Factor 11 at 75 nM” value in series [4] is 68%.
With “417000 (antisense eT*eG*d[5mC]*dA*d[5mC]*dA*dG*dT*dT*dT*d[5mC]*dT*dG*dG*d[5mC]*eA*eG*eG*e[5mC]*e[5mC]) [compound 417000]”, in series [2], half-maximal inhibition (IC50) required 600 nM, the “percent inhibition of Factor 11 at 0.7 μM” value is recorded as 46%, the “percent inhibition of Factor 11 at 2.2 μM” value was 73% and the “percent inhibition of Factor 11 at 6.7 μM” value is 76%. The “percent inhibition of Factor 11 at 20 μM” value in series [2] was determined as 89%. Besides, in series [3] (HepG2 cells, lipofectin, gapmers targeted to nucleobases 1275 to 1318 of SEQ ID NO: 1), the “% inhibition” value stood at 89%. In series [4], the IC50 is 23 nM, the “percent inhibition of Factor 11 at 9.375 nM” value is on record as 35%, the “percent inhibition of Factor 11 at 18.75 nM” value was 47% and the “percent inhibition of Factor 11 at 37.5 nM” value amounted to 58%. In series [4], the “percent inhibition of Factor 11 at 75 nM” value was found to be 70%.
